{"source": "patent US20260294928A1", "about": "“BTK INHIBITOR FOR TREATING MULTIPLE SCLEROSIS” (BIOGEN MA INC., priority 2023, published 2026)", "key": {"CYP3A4": {"target": "CYP3A4 (Homo sapiens, UniProt P08684)", "sequence (P08684 whole entry)": "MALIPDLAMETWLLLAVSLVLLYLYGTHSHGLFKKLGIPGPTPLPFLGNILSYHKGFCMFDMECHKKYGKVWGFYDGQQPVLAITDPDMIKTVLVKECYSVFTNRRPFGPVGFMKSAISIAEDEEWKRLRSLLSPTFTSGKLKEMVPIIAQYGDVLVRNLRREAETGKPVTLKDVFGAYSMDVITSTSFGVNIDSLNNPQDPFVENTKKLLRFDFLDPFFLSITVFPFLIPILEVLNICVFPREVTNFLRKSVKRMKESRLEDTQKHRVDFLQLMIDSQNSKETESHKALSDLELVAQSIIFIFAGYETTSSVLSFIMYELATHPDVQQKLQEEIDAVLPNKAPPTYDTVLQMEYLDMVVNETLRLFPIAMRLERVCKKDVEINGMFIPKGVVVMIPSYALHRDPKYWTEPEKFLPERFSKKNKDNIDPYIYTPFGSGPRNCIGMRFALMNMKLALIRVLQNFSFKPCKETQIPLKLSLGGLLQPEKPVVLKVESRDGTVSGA", "assay": "Part 2 PK of BIIB091 with CYP3A4 inhibitor itraconazole, fed", "format": "in vivo", "settings": "role: substrate, 200 mg BIIB091 IR tablet", "method": "(§1) A new cohort of 12 healthy male and female (non pregnant and non-lactating) subjects were enrolled and dosed. Subjects were randomized into two groups of 6 subjects, to receive the regimen sequence MNO across 3 study periods (Group 1) or regimen sequence MNP across 3 study periods (Group 2). Both groups were dosed in the fed state in Periods 1 and 2, i.e. BIIB091 alone in the fed state in Period 1, and BIIB091 with the CYP3A4 inhibitor itraconazole in the fed state in Period 2. For the PPI assessment in Period 3, subjects were dosed with BIIB091 co-administered with rabeprazole in the fasted or fed state in order to assess PK under each of these conditions."}, "[1]": {"system": "CD69 upregulation on total B cells (CD19+)", "assay": "CD69 inhibition on ex vivo stimulated total B cells (CD19+), Part 3", "format": "in vivo, human", "settings": "for inhibition at 250 mg: Homo sapiens, B-cell, 250 mg BID", "method": "(§2) 250 mg BIIB091 was dosed in a new cohort of 10 healthy subjects twice a day (BID) 12 h apart with a moderate fat meal for 7 days. […] Geomean Ctau (CV %) was 407 (48.3%) ng/mL which exceeded the target of >221 ng/mL, with 9/10 subjects achieving the target."}, "[2]": {"assay": "Part 1 PK study of BIIB091 formulations and regimens in healthy subjects", "format": "in vivo, human", "method": "(§3) In a single center, open-label study, several formulations and treatment regimens were explored to reduce pharmacokinetic (PK) variability and achieve steady state Ctrough>221 ng/mL while limiting the drug exposure (Cmax). The study included 3 parts.\n(§4) IR tablet (50 mg) was tested in 19 healthy subjects at different dose levels (150, 250 and 350 mg) and in the fed (moderate fat and high fat) and fasted state and as a divided daily dose (12 h apart). Subject were treated with BIIB091 up to 4 periods. To facilitate comparisons between different regimens, subjects were randomized into 2 groups (Group 1 and Group 2) pre-dose on Day 1 in Periods 1, 3 and 4. Period 2 was utilized as a reference period, where all subjects were dosed with the BIIB091 IR DiC (drug in capsule)."}, "[3]": {"assay": "Part 3 multiple dose PK, 250 mg BID x 7 days with moderate fat meal", "format": "in vivo, human", "settings": "250 mg BID 12 h apart x 7 days", "method": "as §2"}, "[4]": {"assay": "Part 1 safety and tolerability in healthy subjects", "format": "in vivo, human", "settings": "all regimens tested, Part 1 (150, 250, 350 mg; fed, fasted, divided dose)", "method": "as §3, §4"}, "[5]": {"assay": "Part 2 PK of BIIB091 with PPI rabeprazole, fasted or fed", "format": "in vivo, human", "settings": "200 mg BIIB091 IR tablet with rabeprazole 20 mg", "method": "as §1"}}, "note": "Where two headings read alike, the source gives them in different places.", "data": [{"compound": "Cn1cc(Nc2nccc(-c3ccc4c(c3)CN(C3COC3)CC[C@H]4NC(=O)c3cn(C(C)(C)C)nn3)n2)cn1", "note": "[Compound 1, (R)-1-(tert-butyl)-N-(8-(2-((1-methyl-1H-pyrazol-4-yl)amino)pyrimidin-4-yl)-2-(oxetan-3-yl)-2,3,4,5-tetrahydro-1H-benzo[c]azepin-5-yl)-1H-1,2,3-triazole-4-carboxamide]", "values": [{"measurement": "CYP3A4 substrate", "setting": "CYP3A4; fed, with itraconazole 200 mg", "result": "moderate CYP3A4 substrate"}, {"measurement": "BIIB091 exposure with CYP3A4 inhibitor co-administration", "setting": "CYP3A4; inhibitor itraconazole 200 mg, moderate-fat fed", "result": "increased"}, {"measurement": "CD69 inhibition at 24 h post final dose", "setting": "[1]; 250 mg BID x 7 days, 24 h post final dose", "result": "returned to baseline"}, {"measurement": "inhibition at 250 mg", "setting": "[1]; 12 h post-dose, day 1, read-out: CD69 mean inhibition", "result": 86.8, "unit": "%"}, {"measurement": "inhibition at 250 mg", "setting": "[1]; 12 h post-dose, day 7, read-out: CD69 mean inhibition", "result": 85.4, "unit": "%"}, {"measurement": "inhibition at 250 mg", "setting": "[1]; Day 1 and 7, from 1 h to 8 h post-dose, ex vivo stimulated B cells, read-out: CD69 inhibition range", "result": "96.5 to 99.2", "unit": "%"}, {"measurement": "inhibition at 250 mg", "setting": "[1]; Day 1 and 7, from 1 h to 8 h post-dose, ex vivo stimulated B cells, read-out: mean inhibition of CD69 upregulation from Day 1 pre-dose baseline", "result": "> 90", "unit": "%"}, {"measurement": "C (Cmax) with HF food", "setting": "[2]; high fat food", "result": "reduced"}, {"measurement": "T (Tmax) with HF food", "setting": "[2]; high fat food", "result": "delayed"}, {"measurement": "AUC with MF meal", "setting": "[2]; moderate fat meal", "result": "similar"}, {"measurement": "C with MF meal", "setting": "[2]; moderate fat meal", "result": "similar"}, {"measurement": "Tmax with MF meal compared to HF", "setting": "[2]; moderate fat meal", "result": "less of a delay in Tmax compared to high fat"}, {"measurement": "accumulation ratio for AUCtau", "setting": "[3]", "result": 1.75}, {"measurement": "accumulation ratio for Cmax", "setting": "[3]", "result": 1.49}, {"measurement": "subjects achieving the target Ctau of >221 ng/mL", "setting": "[3]", "result": "9/10"}, {"measurement": "concentration at 12 h", "setting": "[3]; human, in vivo, po, read-out: Geomean Ctau (CV %)", "result": 407, "unit": "ng/mL"}, {"measurement": "safety and tolerability", "setting": "[4]", "result": "generally safe and well tolerated"}, {"measurement": "BIIB091 bioavailability with PPI co-administration, fasted state", "setting": "[5]; fasted", "result": "decreased"}, {"measurement": "BIIB091 bioavailability with PPI together with food, compared with fasted condition", "setting": "[5]; moderate-fat fed", "result": "increased"}]}]}
